Patent publication US8999981B2, “3-amido-pyrrolo[3,4-C]pyrazole-5(1H, 4H,6H) carbaldehyde derivatives” (Pfizer Inc., priority 2007, dated 2015)
pKi: −log10 of the molar value.

The compounds below were run against Protein Kinase C beta 2 (PKCβII) (Homo sapiens (Human), UniProt P05771) (assay: PKCβII coupled PK/LDH spectrophotometric kinase assay). Settings: apparent Ki, ATP-competitive model (Morrison equation); 0.1 mM ATP, 30° C.; read-out: PKCb Ki.
Chain of Protein Kinase C beta 2 (PKCβII) (P05771 other isoform, or with tags, fused parts or gaps): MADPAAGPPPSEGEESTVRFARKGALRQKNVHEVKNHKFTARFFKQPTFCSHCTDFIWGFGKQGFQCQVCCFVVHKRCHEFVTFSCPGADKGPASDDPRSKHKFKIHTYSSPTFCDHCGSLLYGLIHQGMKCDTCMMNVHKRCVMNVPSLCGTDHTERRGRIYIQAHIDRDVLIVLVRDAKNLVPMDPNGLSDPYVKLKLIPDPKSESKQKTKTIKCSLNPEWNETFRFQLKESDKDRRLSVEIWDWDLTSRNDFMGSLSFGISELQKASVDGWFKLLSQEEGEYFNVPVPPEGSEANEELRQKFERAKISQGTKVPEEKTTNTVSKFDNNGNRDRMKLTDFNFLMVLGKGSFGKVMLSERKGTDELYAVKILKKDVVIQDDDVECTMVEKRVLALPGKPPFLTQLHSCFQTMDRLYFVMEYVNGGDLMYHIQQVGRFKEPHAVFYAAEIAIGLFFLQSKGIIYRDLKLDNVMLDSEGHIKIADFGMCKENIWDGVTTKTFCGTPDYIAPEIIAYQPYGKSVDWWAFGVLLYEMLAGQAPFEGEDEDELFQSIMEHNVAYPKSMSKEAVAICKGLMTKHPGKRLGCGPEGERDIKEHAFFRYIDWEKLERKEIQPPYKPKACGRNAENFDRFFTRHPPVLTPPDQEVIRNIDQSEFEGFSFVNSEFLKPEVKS
Format: biochemical
Protocol: This transfer is coupled to the oxidation of β-NADH through the activities of Pyruvate Kinase (PK) and Lactate Dehydrogenase (LDH). β-NADH conversion to NAD+ is monitored by the decrease in absorbance at 340 nm (e=6.22 cm^−1 mM^−1) using a Molecular Devices SPECTRA max PLUS spectrophotometer.
A typical assay was carried out on a 96-well, clear microtiter plate in a Molecular Devices spectrophotometer for 20 minutes at 30° C. in 0.1 mL of assay buffer containing 50 mM HEPES, pH 7.4, 5 nM PKC, 23 units of pyruvate kinase, 33 units of lactate dehydrogenase, 0.15 mM peptide, 0.1 mM ATP, 1 mM DTT, 4 mM PEP, 8 mM MgCl2, 0.3 mM NADH, 60 mM CaCl2, 10 mg/mL PS, 50 ng/mL PMA, 7.5% DMSO and from about 10,000 nM to 0.169 nM compound inhibitor. Stock solutions of 3-sn-phosphatidyl-L-serine (PS) and phorbol-12-myristate-13-acetate (PMA) were sonicated for 30 seconds just prior to addition to assay buffer and assays were initiated by the addition of 100 μM ATP.
Enzyme turnover values (kcat) were calculated according to […], where [E] is the total enzyme concentration. Enzyme inhibition constants (apparent K values) were determined by fitting initial velocities at variable inhibitor concentrations to a model for ATP competitive inhibition based on the Morrison equation). Morrison, J. F., Biochim. Biophys Acta 185: 269-286 (1969).
In the case of `C[C@H]1CN2CCC[C@H]2CN1C(=O)N1Cc2c(NC(=O)c3ccccn3)n[nH]c2C1(C)C` [Example A1, N-(6,6-Dimethyl-5-((3S,8aS)-3-methyl-octahydropyrrolo[1,2-a]pyrazine-2-carbonyl)-1,4,5,6-tetrahydropyrrolo[3,4-c]pyrazol-3-yl)picolinamide], the pKi was 7.53.
`CC1(C)c2[nH]nc(NC(=O)c3cccc(Oc4ccccc4)c3)c2CN1C(=O)N1C[C@@H]2CCCN2C[C@@H]1Cc1ccccc1` [Example A3] gave a pKi of 7.43.
`CN1CCN(C(=O)N2Cc3c(n[nH]c3NC(=O)c3cc4ccccc4s3)C2(C)C)[C@@H](Cc2ccccc2)C1` [Example A4] was tested, and the pKi was 6.84.
Compound `CN1CCN(C(=O)N2Cc3c(NC(=O)c4cccs4)n[nH]c3C2(C)C)[C@@H](Cc2ccccc2)C1` [Example A6] has a pKi of 6.73.
Compound `CN1CCN(C(=O)N2Cc3c(NC(=O)c4cc5ccccc5o4)n[nH]c3C2(C)C)[C@@H](Cc2ccccc2)C1` [Example A7] has a pKi of 6.91.
With `CN1CCN(C(=O)N2Cc3c(NC(=O)c4ccc5ccccc5n4)n[nH]c3C2(C)C)[C@@H](Cc2ccccc2)C1` [Example A8] the pKi was 7.11.
For `CN1CCN(C(=O)N2Cc3c(NC(=O)c4cccc(Oc5ccccc5)c4)n[nH]c3C2(C)C)C(c2ccccc2)C1` (stereo not drawn) [Example A9], the pKi was 6.80.
`CC1(C)c2[nH]nc(NC(=O)c3cccc(Oc4ccccc4)c3)c2CN1C(=O)N1CCNCC1c1ccccc1` (stereo not drawn) [Example A10] gave a pKi of 7.25.
For `CC1(C)c2[nH]nc(NC(=O)c3ccc4ccccc4n3)c2CN1C(=O)N1CCN2CCCC2C1` (stereo not drawn) [Example A11], the pKi was 7.13.
`CC(C)C[C@H]1CN2CCC[C@H]2CN1C(=O)N1Cc2c(NC(=O)c3ccc4ccccc4n3)n[nH]c2C1(C)C` [Example A12] was tested, and the pKi was 6.99.
With `CC1(C)c2[nH]nc(NC(=O)c3ccc4ccccc4n3)c2CN1C(=O)N1C[C@@H]2CCCN2C[C@@H]1Cc1ccccc1` [Example A13] the pKi was 7.56.
For `CC1(C)c2[nH]nc(NC(=O)c3ccc4ccccc4n3)c2CN1C(=O)N1C[C@@H]2CCCN2C[C@@H]1Cc1ccccc1` [Example A14], the pKi was 7.79.
In the case of `CC1(C)c2[nH]nc(NC(=O)c3cccs3)c2CN1C(=O)N1CCN2CCCC2C1` (stereo not drawn) [Example A15], the pKi was 6.87.
Work on `CC1(C)c2[nH]nc(NC(=O)c3ccccc3)c2CN1C(=O)N1CCN2CCCC2C1` (stereo not drawn) [Example A16] yielded a pKi of 6.95.
`COc1cccc(C(=O)Nc2n[nH]c3c2CN(C(=O)N2C[C@@H]4CCCN4C[C@@H]2Cc2ccccc2)C3(C)C)c1` [Example A17] gave a pKi of 7.79.
With `COc1ccc(C(=O)Nc2n[nH]c3c2CN(C(=O)N2C[C@@H]4CCCN4C[C@@H]2Cc2ccccc2)C3(C)C)cc1` [Example A18] the pKi was 7.52.
`CC1(C)c2[nH]nc(NC(=O)c3ccccc3Cl)c2CN1C(=O)N1C[C@@H]2CCCN2C[C@@H]1Cc1ccccc1` [Example A19] gave a pKi of 7.04.
`CC1(C)c2[nH]nc(NC(=O)c3cccc(F)c3F)c2CN1C(=O)N1C[C@@H]2CCCN2C[C@@H]1Cc1ccccc1` [Example A20] gave a pKi of 7.29.
Work on `CC1(C)c2[nH]nc(NC(=O)c3cccc(Cl)c3)c2CN1C(=O)N1CCN2CCCC2C1` (stereo not drawn) [Example A22] yielded a pKi of 7.54.
For `CC1(C)c2[nH]nc(NC(=O)c3cccc(Cl)n3)c2CN1C(=O)N1CCN2CCCC2C1` (stereo not drawn) [Example A23], the pKi was 7.25.
Work on `CC1(C)c2[nH]nc(NC(=O)c3cccc(Cl)n3)c2CN1C(=O)N1CCN2CCCC2C1` (stereo not drawn) [Example A24] yielded a pKi of 7.37.
Work on `CC1(C)c2[nH]nc(NC(=O)c3ccc4ccncc4n3)c2CN1C(=O)N1C[C@@H]2CCCN2C[C@@H]1Cc1ccccc1` [Example A25] yielded a pKi of 7.54.
For `Cn1ccnc1C(=O)Nc1n[nH]c2c1CN(C(=O)N1C[C@@H]3CCCN3C[C@@H]1Cc1ccccc1)C2(C)C` [Example A26], the pKi was 7.16.
With `C[C@H]1CN2CCC[C@H]2CN1C(=O)N1Cc2c(NC(=O)c3ccccc3)n[nH]c2C1(C)C` [Example A27] the pKi was 7.45.
For `CCC[C@H]1CN2CCC[C@H]2CN1C(=O)N1Cc2c(NC(=O)c3ccccc3)n[nH]c2C1(C)C` [Example A28], the pKi was 7.02.
`C[C@@H]1CN(C(=O)N2Cc3c(NC(=O)c4ccccn4)n[nH]c3C2(C)C)C[C@H](C)N1` [Example A29] showed a pKi of 7.11.
`C[C@H]1CN2CCC[C@H]2CN1C(=O)C1Cc2c(NC(=O)c3cc(Cl)cc(Cl)c3)n[nH]c2C1(C)C` (stereo partly drawn) [Example A30] showed a pKi of 7.64.
`C[C@H]1CN2CCC[C@H]2CN1C(=O)N1Cc2c(NC(=O)c3cccc(Cl)c3)n[nH]c2C1(C)C` [Example A31] was tested, and the pKi was 7.67.
`C[C@H]1CN2CCC[C@H]2CN1C(=O)N1Cc2c(NC(=O)c3ccccc3F)n[nH]c2C1(C)C` [Example A32] gave a pKi of 7.03.
In the case of `C[C@H]1CN2CCC[C@H]2CN1C(=O)N1Cc2c(NC(=O)c3cc(Cl)ccc3F)n[nH]c2C1(C)C` [Example A33], the pKi was 7.08.
`C[C@H]1CN2CCC[C@H]2CN1C(=O)N1Cc2c(NC(=O)c3ccc(F)c(Cl)c3)n[nH]c2C1(C)C` [Example A34] was tested, and the pKi was 7.66.
Work on `C[C@H]1CN2CCC[C@H]2CN1C(=O)N1Cc2c(NC(=O)c3cc(C(F)(F)F)ccc3F)n[nH]c2C1(C)C` [Example A35] yielded a pKi of 6.75.
Work on `C[C@H]1CN2CCC[C@H]2CN1C(=O)N1Cc2c(NC(=O)c3ccc(Cl)c(Cl)c3)n[nH]c2C1(C)C` [Example A36] yielded a pKi of 7.86.
`C[C@H]1CN2CCC[C@H]2CN1C(=O)N1Cc2c(NC(=O)c3c(F)cccc3C(F)(F)F)n[nH]c2C1(C)C` [Example A37] gave a pKi of 6.81.
For `C[C@H]1CN2CCC[C@H]2CN1C(=O)N1Cc2c(NC(=O)c3c(F)cccc3Cl)n[nH]c2C1(C)C` [Example A38], the pKi was 6.74.
For `COc1cccc(C(=O)Nc2n[nH]c3c2CN(C(=O)N2C[C@@H]4CCCN4C[C@@H]2C)C3(C)C)c1` [Example A39], the pKi was 7.32.
`COc1ccc(C(=O)Nc2n[nH]c3c2CN(C(=O)N2C[C@@H]4CCCN4C[C@@H]2C)C3(C)C)cc1` [Example A40] was tested, and the pKi was 7.49.
`C[C@H]1CN2CCC[C@H]2CN1C(=O)N1Cc2c(NC(=O)c3ccc(OC(F)(F)F)cc3)n[nH]c2C1(C)C` [Example A41] showed a pKi of 7.34.
`Cc1cc(C(=O)Nc2n[nH]c3c2CN(C(=O)N2C[C@@H]4CCCN4C[C@@H]2C)C3(C)C)n(C)n1` [Example A42] gave a pKi of 7.17.
In the case of `C[C@H]1CN2CCC[C@H]2CN1C(=O)N1Cc2c(NC(=O)c3cncs3)n[nH]c2C1(C)C` [Example A43], the pKi was 6.87.
For `C[C@H]1CN2CCC[C@H]2CN1C(=O)N1Cc2c(NC(=O)c3cscn3)n[nH]c2C1(C)C` [Example A44], the pKi was 7.36.
`C[C@H]1CN2CCC[C@H]2CN1C(=O)N1Cc2c(NC(=O)c3cccc(OC(F)(F)F)c3)n[nH]c2C1(C)C` [Example A45] showed a pKi of 6.98.
`CC1CN(C(=O)N2Cc3c(NC(=O)c4ccccn4)n[nH]c3C2(C)C)C(C)CN1` (stereo not drawn) [Example A46] gave a pKi of 7.44.
`COc1ccc(C(=O)Nc2n[nH]c3c2CN(C(=O)N2C[C@@H]4CCCN4C[C@@H]2C)C3(C)C)nc1` [Example A47] showed a pKi of 7.18.
Work on `COc1cc(C(=O)Nc2n[nH]c3c2CN(C(=O)N2C[C@@H]4CCCN4C[C@@H]2C)C3(C)C)ccc1Cl` [Example A48] yielded a pKi of 7.16.
With `C[C@H]1CN2CCC[C@H]2CN1C(=O)N1Cc2c(NC(=O)c3ccc(F)c(Cl)c3)n[nH]c2C1(C)C` [Example A49] the pKi was 7.27.
Work on `CCc1ccc(C(=O)Nc2n[nH]c3c2CN(C(=O)N2C[C@@H]4CCCN4C[C@@H]2C)C3(C)C)nc1` [Example A50] yielded a pKi of 7.09.
`Cc1cc(C)nc(C(=O)Nc2n[nH]c3c2CN(C(=O)N2C[C@@H]4CCCN4C[C@@H]2C)C3(C)C)c1` [Example A51] was tested, and the pKi was 7.68.
`Cc1cc(C(=O)Nc2n[nH]c3c2CN(C(=O)N2C[C@@H]4CCCN4C[C@@H]2C)C3(C)C)nn1C` [Example A52] was tested, and the pKi was 6.83.
`CCc1ccnc(C(=O)Nc2n[nH]c3c2CN(C(=O)N2C[C@@H]4CCCN4C[C@@H]2C)C3(C)C)c1` [Example A53] gave a pKi of 7.18.
`C[C@H]1CN2CCC[C@H]2CN1C(=O)N1Cc2c(NC(=O)c3nc4ccccc4s3)n[nH]c2C1(C)C` [Example A54] showed a pKi of 7.30.
`CC(C)c1csc(C(=O)Nc2n[nH]c3c2CN(C(=O)N2C[C@@H]4CCCN4C[C@@H]2C)C3(C)C)n1` [Example A55] gave a pKi of 6.75.
`CC1(C)c2[nH]nc(NC(=O)c3ccccn3)c2CN1C(=O)N1C[C@@H]2CCCN2C[C@@H]1CC1CCCCC1` [Example A56] showed a pKi of 7.74.
`CC1(C)CN2CCC[C@H]2CN1C(=O)N1Cc2c(NC(=O)c3cccc(Cl)c3)n[nH]c2C1(C)C` [Example A57] was tested, and the pKi was 7.06.
`Cc1cc(C(=O)Nc2n[nH]c3c2CN(C(=O)N2C[C@@H]4CCCN4C[C@@H]2C)C3(C)C)nc(Cl)n1` [Example A58] was tested, and the pKi was 7.45.
`COc1cc(C(=O)Nc2n[nH]c3c2CN(C(=O)N2C[C@@H]4CCCN4C[C@@H]2C)C3(C)C)nc(OC)n1` [Example A59] gave a pKi of 7.02.
In the case of `C[C@H]1CN2CCC[C@H]2CN1C(=O)N1Cc2c(NC(=O)c3cccc(C#N)c3)n[nH]c2C1(C)C` [Example A60], the pKi was 7.77.
In the case of `CCc1ccc(C(=O)Nc2n[nH]c3c2CN(C(=O)N2C[C@@H]4CCCN4C[C@@H]2C)C3(C)C)cc1` [Example A61], the pKi was 7.62.
In the case of `Cc1cc(C(=O)Nc2n[nH]c3c2CN(C(=O)N2C[C@@H]4CCCN4C[C@@H]2C)C3(C)C)ccc1F` [Example A62], the pKi was 7.29.
In the case of `C[C@H]1CN2CCC[C@H]2CN1C(=O)N1Cc2c(NC(=O)c3cccc(F)c3F)n[nH]c2C1(C)C` [Example A63], the pKi was 7.18.
